Experimental data from ChEMBL document CHEMBL1132499, “NMR-based discovery of phosphotyrosine mimetics that bind to the Lck SH2 domain” (Bioorg Med Chem Lett, 1999).

Target: Tyrosine-protein kinase Lck (Homo sapiens, UniProt P06239)
Assay: Binding affinity against Lck SH2 domain

Chain of Tyrosine-protein kinase Lck (P06239 whole entry, the tested form may be a part): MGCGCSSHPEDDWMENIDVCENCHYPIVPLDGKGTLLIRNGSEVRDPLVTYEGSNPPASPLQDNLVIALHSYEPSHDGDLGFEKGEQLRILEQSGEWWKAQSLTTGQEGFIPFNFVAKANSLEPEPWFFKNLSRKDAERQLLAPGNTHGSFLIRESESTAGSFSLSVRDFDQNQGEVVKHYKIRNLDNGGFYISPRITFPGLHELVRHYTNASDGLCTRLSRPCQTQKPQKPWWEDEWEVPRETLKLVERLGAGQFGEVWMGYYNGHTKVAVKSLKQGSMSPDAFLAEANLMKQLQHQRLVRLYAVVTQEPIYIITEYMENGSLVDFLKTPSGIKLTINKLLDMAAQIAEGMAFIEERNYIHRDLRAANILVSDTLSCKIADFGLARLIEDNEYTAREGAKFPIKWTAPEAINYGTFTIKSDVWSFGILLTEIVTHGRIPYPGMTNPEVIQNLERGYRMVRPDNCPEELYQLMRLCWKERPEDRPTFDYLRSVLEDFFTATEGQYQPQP

Structure (SMILES): O=P(O)(O)Oc1cccc2ccccc12
- Kd: 200 µM

Structure (SMILES): Cc1nccn1C(=O)c1ccccc1C(=O)O
- Kd: 1600 µM

Structure (SMILES): NC(Cc1ccc(OP(=O)(O)O)cc1)C(=O)O (stereo not given)
- Kd: 400 µM

Structure (SMILES): O=P(O)(O)c1cccc2ccccc12
- Kd: 1500 µM

Structure (SMILES): O=P(O)(O)Cc1cccc2ccccc12
- Kd: 1000 µM

Structure (SMILES): O=C(O)c1cc(C(=O)O)cc(C(=O)O)c1
- Kd: 200 µM

Structure (SMILES): Cc1ccccc1CP(=O)(O)O
- Kd: 1000 µM

Structure (SMILES): CCOC(=O)C(Cc1ccc(OP(=O)(O)O)cc1)NC(C)=O (stereo not given)
- Kd: 300 µM

Structure (SMILES): CCCN(CCC)C(=O)c1ccccc1C(=O)O
- Kd: 1700 µM

Structure (SMILES): O=C(O)c1ccccc1C(=O)n1ccnc1
- Kd: 1300 µM

Structure (SMILES): Cc1cc(C)nc(NC(=O)c2cc(C(=O)O)c(C(=O)Nc3cc(C)cc(C)n3)cc2C(=O)O)c1
- Kd: 60 µM

Structure (SMILES): O=P(O)(O)Cc1ccccc1 [BENZYLPHOSPHONIC ACID]
- Kd: 5900 µM

Structure (SMILES): O=P(O)(O)Oc1ccccc1 [PHENYL DIHYDROGEN PHOSPHATE]
- Kd: 300 µM

Structure (SMILES): O=C(O)Cc1ccccc1 [PHENYLACETIC ACID]
- Kd: > 50000 µM

Structure (SMILES): O=C(O)c1ccccc1C(=O)O [PHTHALIC ACID]
- Kd: 1700 µM
